Experimental data taken from US11110126B2, “Method of expanding NK cell and composition for culturing” (Korea University Research and Business Foundation, priority 2015, dated 2021).

Experiments:
NK cells [1] = experiment: Influence of ROS and/or p53 inhibitor on ex-vivo culture (expansion) of NK cells, cell number by hemocytometer; format: cell-based, human; settings: PBMC-derived NK cells cultured 10 days, then inhibitor at three-day intervals, counted after culture for 2 weeks; apocynin 400 μM, trolox 50 μM, pifithrin-α 1 μM, combination 50 μM trolox + 500 nM pifithrin-α
Experimental: Human blood was prepared, and subjected to centrifugation at 2500 rpm for 30 minutes using Ficoll (Ficoll-Paque™ PLUS, GE Healthcare). Then, peripheral blood mononuclear cells were isolated from a buffy coat. Afterward, a Jurkat cell line irradiated at 100 Gy and an EBV-LCL cell line were co-cultured with PBMCs:KL-1:EBV-LCL in a ratio of 1:0.5:0.5 in hRPMI medium prepared by adding 10% FBS and 1% penicillin/streptomycin to RPMI1640 medium in the presence of 500 U/ml IL-2, and the medium was exchanged with hRPMI medium supplemented with 500 U/ml IL-2 once for 2 to 3 days. To examine the influence of an ROS inhibitor on NK cells, the NK cells were cultured for 10 days under the conditions of Preparation Example 1. Then, 400 μM of an apocynin (Calbiochem), 50 μM of trolox (Santa Cruz) and 1 μM of pifithrin-α (Santa Cruz) were treated individually, and 50 μM trolox and 500 nM pifithrin-α were treated in a combination. The inhibitor was treated at three-day intervals, and a cell number was assessed after culture for 2 weeks. Here, the medium was exchanged with hRPMI medium added with 500 U/ml of IL-2 once for three days, and a cell number was calculated using a hemocytometer.

NK cells [2] = experiment: ROS generation in in vitro-expanded NK cells (DCF-DA flow cytometry); format: cell-based, human; settings: 100 μM DCF-DA; for order of ROS generation among treated groups: rank order of groups, lowest ROS first
Experimental: To measure ROS generated in in vitro-expanded NK cells, NK cells cultured by treatment with an inhibitor individually or in combination were harvested. 1×10^6 cells were seeded per well in a 24-well plate, cultured in a 5% CO2 incubator for 30 minutes, and then collected. The cells were washed once with 1 ml of PBS, followed by flow cytometry using 100 μM DCF-DA. The experiment was performed on a control group which was not treated, and experimental groups treated with apocynin, trolox, pifithrin-α and trolox+pifithrin-α, respectively, and the results are shown in FIG. 9.

COc1cc(C(C)=O)ccc1O [apocynin, 1-(4-hydroxy-3-methoxyphenyl)-ethanone]
NK cell number compared with the control group (NK cells [1]): statistically significant increase
order of ROS generation among treated groups (NK cells [2]): trolox<pifithrin-α<trolox+pifithrin-α<apocynin<control group

Br.Cc1ccc(C(=O)Cn2c3c(sc2=N)CCCC3)cc1 [pifithrin-α, 2-(2-imino-4,5,6,7-tetrahydrobenzothiazol-3-yl)-1-p-tolylethanone hydrobromide]
NK cell number compared with the control group (NK cells [1]): statistically significant increase
order of ROS generation among treated groups (NK cells [2]): trolox<pifithrin-α<trolox+pifithrin-α<apocynin<control group

Cc1c(C)c2c(c(C)c1O)CCC(C)(C(=O)O)O2 (stereo not shown) [trolox, 6-hydroxy-2,5,7,8-tetramethylchroman-2-carboxylic acid]
NK cell number compared with the control group (NK cells [1]): statistically significant increase
ROS generation compared with the control group (NK cells [2]; NK cells cultured with inhibitor): significantly decreased
order of ROS generation among treated groups (NK cells [2]): trolox<pifithrin-α<trolox+pifithrin-α<apocynin<control group
